# Laboratory results: ChEMBL document CHEMBL5247605, “Discovery of potent indazole-based human glutaminyl cyclase (QC) inhibitors as Anti-Alzheimer's disease agents” (Eur J Med Chem, 2022)
# Activity calls are given as the source filed them. No cut-off for these calls is given here.
# What was measured:
# Mus musculus [1] = test: Antialzheimer activity in human amyloid beta (3 to 40 residues) induced ICR mouse model assessed as inhibition of pyroglutamate form of amyloid-beta formation in brain at 10 mM, icv by sandwich ELISA relative to control; type: functional
# [2] = Cytotoxicity against mouse HT-22 cells assessed as cell viability at 10 uM incubated for 18 hrs by MTT assay relative to control; type: toxicity, cell-based; settings: read-out: Activity
# hERG (KCNH2) = hERG (KCNH2) (Homo sapiens, UniProt Q12809); test: Inhibition of hERG at 10 uM by fluorescence polarization assay relative to control; type: toxicity
# Mus musculus [3] = species: Mus musculus; settings: ICR, dose 10.0 mM, route icv
# [4] = Metabolic stability in human liver microsomes assessed as compound remaining after 30 mins; type: ADME, Microsome; settings: read-out: Stability
# [5] = Metabolic stability in mouse liver microsomes assessed as compound remaining after 30 mins; type: ADME, Microsome; settings: read-out: Stability
# [6] = target: Voltage-gated inwardly rectifying potassium channel KCNH2 (Homo sapiens, UniProt Q12809); test: Inhibition of hERG by fluorescence polarization assay; type: toxicity
# [7] = target: Glutaminyl-peptide cyclotransferase (Mus musculus, UniProt Q9CYK2); test: Inhibition of mouse glutaminyl cyclase
# Sequence of Glutaminyl-peptide cyclotransferase (Q9CYK2 whole entry): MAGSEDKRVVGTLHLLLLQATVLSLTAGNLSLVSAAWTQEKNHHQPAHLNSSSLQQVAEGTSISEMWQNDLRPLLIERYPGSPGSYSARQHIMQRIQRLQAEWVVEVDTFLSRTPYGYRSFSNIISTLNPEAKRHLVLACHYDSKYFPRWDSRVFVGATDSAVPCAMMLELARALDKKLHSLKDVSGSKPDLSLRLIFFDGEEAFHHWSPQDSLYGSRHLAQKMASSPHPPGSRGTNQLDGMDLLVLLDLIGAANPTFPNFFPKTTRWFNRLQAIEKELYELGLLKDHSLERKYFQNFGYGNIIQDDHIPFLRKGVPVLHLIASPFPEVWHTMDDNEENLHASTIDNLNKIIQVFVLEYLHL
# Sequence of Voltage-gated inwardly rectifying potassium channel KCNH2 (Q12809 whole entry): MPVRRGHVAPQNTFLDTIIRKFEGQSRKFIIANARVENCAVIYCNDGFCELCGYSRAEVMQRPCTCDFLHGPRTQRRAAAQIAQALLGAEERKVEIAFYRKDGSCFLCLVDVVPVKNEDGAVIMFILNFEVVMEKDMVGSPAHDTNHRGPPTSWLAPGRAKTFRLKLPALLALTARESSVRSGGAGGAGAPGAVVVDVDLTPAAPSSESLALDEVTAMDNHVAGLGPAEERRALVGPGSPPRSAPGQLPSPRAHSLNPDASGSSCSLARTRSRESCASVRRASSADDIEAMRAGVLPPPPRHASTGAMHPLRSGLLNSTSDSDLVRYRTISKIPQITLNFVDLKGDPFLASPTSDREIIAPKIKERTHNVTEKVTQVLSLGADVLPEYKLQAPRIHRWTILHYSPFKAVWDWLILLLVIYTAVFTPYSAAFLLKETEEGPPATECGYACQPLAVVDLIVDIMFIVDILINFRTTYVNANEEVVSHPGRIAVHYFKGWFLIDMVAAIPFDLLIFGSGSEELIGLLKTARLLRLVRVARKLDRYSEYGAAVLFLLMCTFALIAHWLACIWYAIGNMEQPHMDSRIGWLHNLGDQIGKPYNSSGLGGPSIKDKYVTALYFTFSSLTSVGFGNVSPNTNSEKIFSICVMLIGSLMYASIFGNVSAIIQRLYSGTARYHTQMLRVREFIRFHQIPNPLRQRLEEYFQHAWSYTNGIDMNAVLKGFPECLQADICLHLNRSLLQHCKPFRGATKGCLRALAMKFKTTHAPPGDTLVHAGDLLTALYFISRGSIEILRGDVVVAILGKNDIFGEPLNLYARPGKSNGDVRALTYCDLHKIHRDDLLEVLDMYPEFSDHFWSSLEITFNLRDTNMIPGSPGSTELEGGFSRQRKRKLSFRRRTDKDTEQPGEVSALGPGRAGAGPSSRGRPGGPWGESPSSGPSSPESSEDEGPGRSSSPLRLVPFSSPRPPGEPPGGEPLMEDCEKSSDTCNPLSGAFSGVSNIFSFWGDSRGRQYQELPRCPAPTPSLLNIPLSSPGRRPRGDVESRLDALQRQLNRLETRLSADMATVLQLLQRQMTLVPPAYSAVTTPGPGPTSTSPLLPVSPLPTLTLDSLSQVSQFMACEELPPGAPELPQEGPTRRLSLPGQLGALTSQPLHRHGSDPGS
# Sequence of hERG (KCNH2) (Q12809 whole entry): as above
compound,measurement,setting,value
Cc1cncn1CCCNC(=O)N(Cc1ccc(F)cc1)c1ccc2c(C)n(C)nc2c1,inhibition (INH),Mus musculus [1],15%
same,"viability at 18 h, 10 µM",[2],91.3%
same,inhibition at 10 µM,hERG (KCNH2),52%
CCCOc1ccc([C@@H]2CNC(=O)N2c2ccc3nc[nH]c3c2)cc1,inhibition (INH),Mus musculus [1],17.1%
Cc1nn(C)c2cc(N(C(=O)NCCCn3cncc3C)C3CCCCC3)ccc12,inhibition,Mus musculus [3],inactive
same,"viability at 18 h, 10 µM",[2],102%
same,inhibition at 10 µM,hERG (KCNH2),52.2%
Cc1nn(C)c2ccc(NC(=O)NCCCn3cncc3C)cc12,inhibition,Mus musculus [3],inactive
same,"viability at 18 h, 10 µM",[2],104%
same,inhibition at 10 µM,hERG (KCNH2),54.4%
Cc1n[nH]c2cc(N(CC3CCCC3)C(=O)NCCCn3cncc3C)ccc12,remaining at 0.5 h,[4],37%
same,remaining at 0.5 h,[5],11.8%
same,inhibition (INH),Mus musculus [1],25.5%
same,IC50,[6],> 10 µM
same,IC50,[7],0.0182 µM
same,"viability at 18 h, 10 µM",[2],96.9%
same,inhibition at 10 µM,hERG (KCNH2),80.8%
Cc1n[nH]c2ccc(N(Cc3ccc(F)cc3)C(=O)NCCCn3cncc3C)cc12,inhibition,Mus musculus [3],inactive
same,IC50,[6],> 10 µM
same,"viability at 18 h, 10 µM",[2],97.2%
same,inhibition at 10 µM,hERG (KCNH2),80.6%
Cc1n[nH]c2cc(N(C(=O)NCCCn3cncc3C)C3CCCCC3)ccc12,remaining at 0.5 h,[4],50.4%
same,remaining at 0.5 h,[5],18.4%
same,inhibition (INH),Mus musculus [1],25%
same,IC50,[6],< 10 µM
same,IC50,[7],0.0342 µM
same,"viability at 18 h, 10 µM",[2],100%
same,inhibition at 10 µM,hERG (KCNH2),47.6%
Cc1nn(C)c2cc(N(Cc3ccc(F)cc3)C(=O)NCCCn3cncc3C)ccc12,inhibition,Mus musculus [3],inactive
same,"viability at 18 h, 10 µM",[2],102%
same,inhibition at 10 µM,hERG (KCNH2),56.5%
Cc1nn(C)c2ccc(N(C(=O)NCCCn3cncc3C)C3CCCCC3)cc12,inhibition,Mus musculus [3],inactive
same,IC50,[6],> 10 µM
same,"viability at 18 h, 10 µM",[2],99.1%
same,inhibition at 10 µM,hERG (KCNH2),58.1%
Cc1nn(C)c2ccc(N(Cc3ccc(F)cc3)C(=O)NCCCn3cncc3C)cc12,inhibition (INH),Mus musculus [1],7%
same,IC50,[6],> 10 µM
same,"viability at 18 h, 10 µM",[2],108%
same,inhibition at 10 µM,hERG (KCNH2),63.6%
Cc1n[nH]c2cc(N(Cc3ccc(F)cc3)C(=O)NCCCn3cncc3C)ccc12,remaining at 0.5 h,[4],40.1%
same,remaining at 0.5 h,[5],7.2%
same,inhibition (INH),Mus musculus [1],38.4%
same,IC50,[6],> 10 µM
same,IC50,[7],0.0299 µM
same,"viability at 18 h, 10 µM",[2],92.1%
same,inhibition at 10 µM,hERG (KCNH2),61.9%
Cc1nn(C)c2cc(N(CC3CCCC3)C(=O)NCCCn3cncc3C)ccc12,inhibition,Mus musculus [3],inactive
same,IC50,[6],> 10 µM
same,"viability at 18 h, 10 µM",[2],107%
same,inhibition at 10 µM,hERG (KCNH2),70.3%
Cc1nn(C)c2ccc(N(CC3CCCC3)C(=O)NCCCn3cncc3C)cc12,inhibition,Mus musculus [3],inactive
same,IC50,[6],> 10 µM
same,"viability at 18 h, 10 µM",[2],104%
same,inhibition at 10 µM,hERG (KCNH2),81.5%
Cc1nn(CCCCc2ccnc(N)c2)c2ccc(NC(=O)NCCCn3cncc3C)cc12,inhibition (INH),Mus musculus [1],7.7%
same,"viability at 18 h, 10 µM",[2],98.7%
same,inhibition at 10 µM,hERG (KCNH2),50.3%
Cc1nn(C)c2ccc(N(Cc3cccnc3)C(=O)NCCCn3cncc3C)cc12,inhibition,Mus musculus [3],inactive
same,IC50,[6],< 10 µM
same,"viability at 18 h, 10 µM",[2],98.3%
same,inhibition at 10 µM,hERG (KCNH2),44.1%
Cc1n[nH]c2ccc(N(C(=O)NCCCn3cncc3C)C3CCCCC3)cc12,inhibition (INH),Mus musculus [1],8%
same,IC50,[6],> 10 µM
same,"viability at 18 h, 10 µM",[2],100%
same,inhibition at 10 µM,hERG (KCNH2),74.4%
